Experimental data published in PMC9098913, “In vitro reconstitution of Escherichia coli divisome activation” (Nature Communications, 2022).

What was measured:
FtsZ [1] = settings: […] Tris-NTA; p-value […] 10^−4 (vs WT-His6); 7.78 × 10^−5 (vs R286W); three repeats
Description: (§1) Co-treadmilling of FtsA with FtsZ relies on the dynamic exchange of FtsA on the membrane. […] To investigate the respective contributions of membrane binding kinetics and FtsA self-interaction on the colocalization dynamics with FtsZ, we wanted to create variants of the two FtsA proteins that are permanently attached to the membrane. […] Accordingly, in these experiments the proteins only differ in their tendency to form oligomers.
(§2) To study colocalization of His-tagged variants of FtsA, 0.5–1 µM of Cy5 labelled His-tagged FtsAs were added to the chamber, incubated for 20 min and washed 6x with reaction buffer. […] To control the density of membrane-bound FtsA, SUVs without and with Tris-NTA lipids were mixed to obtain the respective Tris-NTA concentrations. To perform FRET/FRAP experiments, equimolar concentrations of Cy3 and Cy5 labelled His-tagged FtsAs (total 0.5–1 µM) or His-SUMO-Cys were added to a chamber and treated as above. […] FRAP experiments were performed as described before.
Treadmilling dynamics, were quantified using an automated image analysis protocol previously developed by our group. To visualize colocalization of the co-treadmilling FtsZ & FtsA filaments, we used dual-colour videos obtained at an acquisition rate of one frame per 2 s. The two channels were aligned using FIJI’s 3TP align plugin. Both channels were then subjected to the image subtraction protocol and colocalization was measured as described above.

[2] = Membrane off-binding rate (koff) of FtsA from FRAP; parameters: Off binding rate koff: unit not given here; settings: Fig. S4i
From the text: We could also use the data from these bleaching experiments to quantify the membrane-binding kinetics and diffusion of membrane-bound proteins by analysing the change of the fluorescence profile during recovery.
Equimolar concentrations of Cy3- and Cy5-labelled FtsA, supplemented with 20% unlabelled FtsA were used to study FRET and FRAP. Five pre-bleach frames were acquired, followed by acceptor photobleaching of a rectangular ROI with 40% 641 nm laser power and a dwell size of 1 µs/pixel, 75% overlapping lines. The recovery of the signal or the increase in donor intensity were measured with either two frames or one frame per second.
Bleaching the acceptor dye leads to an increase in the donor intensity, which can be used to quantify the Foerster Resonance energy transfer (FRET)[48]. FRET efficiency was quantified with E%=Ipost/Ipost+Ipre⋅100 , where Ipost is the intensity of the […] and Ipre is the […]. […] To extract the contribution of both processes, we adjusted a routine recently published by Gerganova et al.[33]. In short, the code provides the contribution of both modes of recovery by analysing the shape of the fluorescence recovery profile. […] Contribution of diffusion leads to a change of the slope of the outer borders of the bleached region (S4h right). Thus, by measuring the change of the slope of the border recovery, diffusion and simple on/off binding can be distinguished. We developed “FRAPdiff”, a graphical user interface, which uses the original fit routine by David Rutkowski. It can be used directly on.tiff movies with annotated bleach regions as ImageJ ROIs. In addition, we added optional bleach correction, user selectable projection axis (x or y), and optional mirroring of the recovery profiles, if bleaching was not symmetric. The original fit routine for estimating the recovery and diffusion dynamics can be found at https://github.com/davidmrutkowski/1DReflectingDiffusion. FRAPdiff is available at 10.5281/zenodo.6400639[49] under the GPLv3 open-source license.

FtsZ [3] = settings: […] Tris-NTA; p-value 3.86 × 10^−4; three repeats
Description: as §1, §2
Time-lapse videos were first intensity-corrected and contrast-enhanced to avoid bleaching effects and simplify subsequent analysis. To remove contributions of X–Y drift, the videos were processed with the Linear Stack Alignment with SIFT plugin. Proper alignment was checked with the 3TP align plugin (J. A. Parker; Beth Israel Deaconess Medical Center, Boston). Subsequently, regions of interest (ROIs) in the center of the stacks were chosen for colocalization analysis. The Pearson’s correlation coefficient (PCC) was quantified with the Image CorrelationJ 1o plugin. To extract information about the relative ratio of FtsZ/FtsA molecules (slope of linear regression), we also used the Image CorrelationJ 1o plugin. As an output, the plugin provides a scatterplot of FtsZ vs FtsA intensities, to which we fitted a linear slope y=k⋅x+d , where k is the slope and d the offset. The slope was used as an estimate for the ratio of FtsA molecules below FtsZ filaments.

With “FtsA-His6: FtsA WT (1-405) with amphipathic helix replaced by C-terminal His-tag” the “PCCdiff His-tagged FtsA/FtsZ” value (FtsZ [1]) was 0.07 ± 0.04, the “Off binding rate koff” value ([2]; 0.10 % Tris-NTA lipids, + FtsZ, summary value) was 0.0359 and the “Off binding rate koff” value ([2]; 0.10 % Tris-NTA lipids, replicate 1) was 0.020. For the same substance, the “Off binding rate koff” value ([2]; 0.10 % Tris-NTA lipids, replicate 2) was 0.006, the “Off binding rate koff” value ([2]; 0.10 % Tris-NTA lipids, without FtsZ, summary value) was 0.0131 and the “Off binding rate koff” value ([2]; 0.40 % Tris-NTA lipids, + FtsZ, summary value) was 0.0068. For the same substance, the “Off binding rate koff” value ([2]; 0.40 % Tris-NTA lipids, without FtsZ, summary value) was 0.0123, the “Off binding rate koff” value ([2]; 0.60 % Tris-NTA lipids, + FtsZ, summary value) was 0.0048 and the “Off binding rate koff” value ([2]; 0.60 % Tris-NTA lipids, without FtsZ, summary value) was 0.0097. The “Off binding rate koff” value ([2]; […] Tris-NTA lipids, + FtsZ, summary value) was 0.0182, the “Off binding rate koff” value ([2]; […] Tris-NTA lipids, replicate 1) was 0.0017 and the “Off binding rate koff” value ([2]; […] Tris-NTA lipids, replicate 2) was 0.018. The “Off binding rate koff” value ([2]; […] Tris-NTA lipids, without FtsZ, summary value) was 0.0098 and the “PCC His-tagged FtsA/FtsZ” value (FtsZ [3]) was 0.13 ± 0.06.
